What was measured:
[1] = target: T1, 5-HT1A receptor (Rattus norvegicus, UniProt P19327); test: 5-HT1A receptor binding affinity in rat hippocampal membrane homogenate; parameters: in rat hippocampal membrane homogenate; from tissue; host or cells: rat hippocampal membrane homogenate; conditions: for IC50: rat hippocampal membrane homogenate; for Ratio 5HT1A / α1 (binding selectivity): ratio of 5-HT1A binding to α1 binding
T1 sequence (P19327 1-422): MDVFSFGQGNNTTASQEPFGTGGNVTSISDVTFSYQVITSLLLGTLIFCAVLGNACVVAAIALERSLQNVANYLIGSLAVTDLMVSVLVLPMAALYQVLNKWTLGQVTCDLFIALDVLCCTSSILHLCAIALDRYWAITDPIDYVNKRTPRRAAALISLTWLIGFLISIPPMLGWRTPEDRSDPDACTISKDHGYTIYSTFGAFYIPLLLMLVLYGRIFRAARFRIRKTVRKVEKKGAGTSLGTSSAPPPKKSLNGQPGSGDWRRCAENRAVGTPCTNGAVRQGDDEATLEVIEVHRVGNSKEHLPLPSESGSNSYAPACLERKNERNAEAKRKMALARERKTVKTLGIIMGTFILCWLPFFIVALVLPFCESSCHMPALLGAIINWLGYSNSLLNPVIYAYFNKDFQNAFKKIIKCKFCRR
Protocol: The compounds were tested for 5-HT1A binding affinity (column 2) in rat hippocampal membrane homogenate by the method of B. S. Alexander and M. D. Wood, J. Pharm. Pharmacol., 1988, 40, 888-891.

[2] = target: α1 receptor; test: α1 receptor binding affinity
Protocol: The compounds were tested for α1 binding affinity (column 3) by the procedure of A. L. Marrow et al, Mol. Pharmacol., 1986, 29, 321.

[3] = target: T1, 5-HT1A receptor; test: Oral 5-HT1A receptor antagonist activity: antagonism of 8-OH-DPAT syndrome in rats; assay type: in vivo
Protocol: 5-HT1A receptor antagonist activity (columns 5 and 6) is assessed by the ability of the selective 5-HT1A receptor agonist, 8-OH-DPAT, to induce the `8-OH-DPAT syndrome` in rats characterised by extended flat body posture, forepaw treading and hyperlocomotion. The 8-OH-DPAT syndrome is scored as present (definite syndrome response) or absent (equivocal or no syndrome response) during the period 0-5 min following intravenous (i.v.) administration of the test agonist via a lateral tail vein.
A range of doses, on a logarithmic scale and encompassing the expected ED50, were chosen for the test agonist following preliminary evaluation. […]
Test antagonists were administered orally (p.o.) 60 min, before i.v. administration of 8-OH-DPAT. ED50 values for 8-OH-DPAT were determined for the different pretreatment groups using the sequential up/down procedure as described above.
The response to the selective 5-HT1A receptor agonist, 8-OH-DPAT, is represented as an ED50 value for induction of the 8-OH-DPAT syndrome, which is determined using the sequential up/down analysis following intravenous administration. 5-HT1A antagonist activity is determined by the ability of the test compound to antagonise the response to 8-OH-DPAT, i.e. to increase the ED50 for induction of the 8-OH-DPAT syndrome compared with vehicle pretreatment. […]

IC50 [1] [nM] | Ratio 5HT1A / α1 (binding selectivity) [1] | IC50 [2] [nM] | 5-HT1A antagonist Ratio (ED50 antagonist @ 3mg/kg po)/ED50 vehicle ([3]; ED50 of 8-OH-DPAT (i.v.) after test compound 3 mg/kg p.o. divided by ED50 after vehicle, rats) | 5-HT1A binding affinity (in words) [1] | 5-HT1A/α1 selectivity (in words) ([1]; binding affinity at 5-HT1A compared to α1 receptors) | SMILES | 5-HT1A antagonist oral activity (in words) ([3]; oral, compared to compounds of EP-A-512755)
4.3 | 564.4 | – | – | – | – | C[C@H](CN1CCN(c2cccc3[nH]ccc23)CC1)N(C(=O)C1CCCCC1)c1ccccn1 [Compound A1, (R)-N-(1-methyl-2-(4-indolyl-1-piperazinyl)ethyl)-N-(2-pyridyl)-cyclohexanecarboxamide] | –
3.2 | 317.5 | 1020 | 34.4 | good 5-HT1A binding affinity | good | O=C(C1CCCCC1)N(CCN1CCN(c2cccc3[nH]ccc23)CC1)c1ccccn1 [Compound A3] | surprising increase in oral activity as 5-HT1A antagonists
6.8 | 142.5 | – | – | – | – | C[C@H](CN(C(=O)C1CCCCC1)c1ccccn1)N1CCN(c2cccc3[nH]ccc23)CC1 [Compound A2, (R)-N-(2-methyl-2-(4-indolyl-1-piperazinyl)ethyl)-N-(2-pyridyl)-cyclohexanecarboxamide] | –

— patent US5723464A, “Piperazine derivatives” (American Home Products Corporation, priority 1994, dated 1998)
